# Assay: Solubility Comparing Test (saturation concentration of dye in alcohol type solvents)
# Type: physicochemical
# Conditions: for Solubility, Mixed solvent: Phenylene glycol:Benzyl alcohol:oleic acid = 4:1:1; for Solubility, Mixed solvent / Solubility, Ethylene glycol: dye added after heating the solvent to 70-80 C; for Solubility, Ethanol / Solubility, n-Propanol: saturation concentration by spotting on filter paper
# Procedure: Solubility of disazo salt-forming dyes (dye 1-5) obtained in Examples 1-5 and dyes a-c into alcohol type organic […] was tested. While stirring each dye with a magnet stirrer, the dye was first added to 100 parts of solvent and it was spotted on the filter paper (Toyo filter paper No. 2) to investigate the saturation concentration. When ethylene glycol or mixed solvent was used for the solvent, dye was added after heating the solvent to 70-80 C.
# Phenylene glycol:Benzyl alcohol:oleic acid = 4:1:1
# 2) Numbers in the Table indicate the solubility (wt %) into the respectiv
smiles,measurement,setting,value
CCC(C)c1ccc(N=Nc2c(S(=O)(=O)O)cc3cc(Nc4ccc5c(O)c(N=Nc6ccc(C(C)CC)cc6)c(S(=O)(=O)O)cc5c4)ccc3c2O)cc1 (centres unmarked) [Dye 1],"Solubility, Mixed solvent",listed as 1,30 wt %
same,"Solubility, Ethanol",listed as 1,20 wt %
same,"Solubility, Ethylene glycol",,30 wt %
same,"Solubility, n-Propanol",listed as 1,15 wt %
CCC(C)c1ccc(N=Nc2c(S(=O)(=O)O)cc3cc(Nc4ccc5c(O)c(N=Nc6ccc(C(C)CC)cc6)c(S(=O)(=O)O)cc5c4)ccc3c2O)cc1 (centres unmarked) [Dye 2],"Solubility, Mixed solvent",listed as 2,40 wt %
same,"Solubility, Ethanol",listed as 2,25 wt %
same,"Solubility, Ethylene glycol",,30 wt %
same,"Solubility, n-Propanol",listed as 2,20 wt %
CCC(C)c1ccc(N=Nc2c(S(=O)(=O)O)cc3cc(Nc4ccc5c(O)c(N=Nc6ccc(C(C)CC)cc6)c(S(=O)(=O)O)cc5c4)ccc3c2O)cc1 (centres unmarked) [Dye 3],"Solubility, Mixed solvent",listed as 3,30 wt %
same,"Solubility, Ethanol",listed as 3,20 wt %
same,"Solubility, n-Propanol",listed as 3,10 wt %
O=S(=O)(O)c1cc2cc(Nc3ccc4c(O)c(N=Nc5ccccc5)c(S(=O)(=O)O)cc4c3)ccc2c(O)c1N=Nc1ccccc1 [Dye a],"Solubility, Mixed solvent",,30 wt %
same,"Solubility, Ethanol",listed as a,10 wt %
same,"Solubility, Ethylene glycol",,30 wt %
same,"Solubility, n-Propanol",,5 wt %
"O=S(=O)(O)c1cc2cc(Nc3ccc4c(O)c(N=Nc5ccccc5)c(S(=O)(=O)O)cc4c3)ccc2c(O)c1N=Nc1ccccc1 [Dye b, reference compound]","Solubility, Ethanol",listed as b,5 wt %
"COc1cc(N=Nc2ccccc2)c(C)cc1N=Nc1c(S(=O)(=O)O)cc2cc(S(=O)(=O)O)cc(N)c2c1O [Dye c, reference compound]","Solubility, Mixed solvent",,40 wt %
same,"Solubility, Ethanol",,10 wt %
same,"Solubility, Ethylene glycol",,30 wt %
same,"Solubility, n-Propanol",,10 wt %

# Source: US5366543A, “Alcohol-soluble dye and ink composition containing the same” (Orient Chemical Industries, Ltd., priority 1992, dated 1994)
